Assay results reported in paper doi:10.1101/2022.09.09.507317v1 (biorxiv, 2022).

Assays:
Test in all cases: actin-activated ATPase, PK/LDH-coupled NADH absorbance
rabbit skeletal myosin = assay type: biochemical, Oryctolagus cuniculus; conditions: 2 mM ATP, 3 mM MgCl2, 5 mM KCl, pH 7.4, 2% DMSO, 100 nM myosin, n = 6
bovine cardiac myosin = bovine cardiac myosin (Bos taurus, UniProt Q9BE39); assay type: biochemical; conditions: 2 mM ATP, 3 mM MgCl2, 5 mM KCl, pH 7.4, 2% DMSO, 200 nM myosin, n = 3
Chain of bovine cardiac myosin (Q9BE39 whole entry): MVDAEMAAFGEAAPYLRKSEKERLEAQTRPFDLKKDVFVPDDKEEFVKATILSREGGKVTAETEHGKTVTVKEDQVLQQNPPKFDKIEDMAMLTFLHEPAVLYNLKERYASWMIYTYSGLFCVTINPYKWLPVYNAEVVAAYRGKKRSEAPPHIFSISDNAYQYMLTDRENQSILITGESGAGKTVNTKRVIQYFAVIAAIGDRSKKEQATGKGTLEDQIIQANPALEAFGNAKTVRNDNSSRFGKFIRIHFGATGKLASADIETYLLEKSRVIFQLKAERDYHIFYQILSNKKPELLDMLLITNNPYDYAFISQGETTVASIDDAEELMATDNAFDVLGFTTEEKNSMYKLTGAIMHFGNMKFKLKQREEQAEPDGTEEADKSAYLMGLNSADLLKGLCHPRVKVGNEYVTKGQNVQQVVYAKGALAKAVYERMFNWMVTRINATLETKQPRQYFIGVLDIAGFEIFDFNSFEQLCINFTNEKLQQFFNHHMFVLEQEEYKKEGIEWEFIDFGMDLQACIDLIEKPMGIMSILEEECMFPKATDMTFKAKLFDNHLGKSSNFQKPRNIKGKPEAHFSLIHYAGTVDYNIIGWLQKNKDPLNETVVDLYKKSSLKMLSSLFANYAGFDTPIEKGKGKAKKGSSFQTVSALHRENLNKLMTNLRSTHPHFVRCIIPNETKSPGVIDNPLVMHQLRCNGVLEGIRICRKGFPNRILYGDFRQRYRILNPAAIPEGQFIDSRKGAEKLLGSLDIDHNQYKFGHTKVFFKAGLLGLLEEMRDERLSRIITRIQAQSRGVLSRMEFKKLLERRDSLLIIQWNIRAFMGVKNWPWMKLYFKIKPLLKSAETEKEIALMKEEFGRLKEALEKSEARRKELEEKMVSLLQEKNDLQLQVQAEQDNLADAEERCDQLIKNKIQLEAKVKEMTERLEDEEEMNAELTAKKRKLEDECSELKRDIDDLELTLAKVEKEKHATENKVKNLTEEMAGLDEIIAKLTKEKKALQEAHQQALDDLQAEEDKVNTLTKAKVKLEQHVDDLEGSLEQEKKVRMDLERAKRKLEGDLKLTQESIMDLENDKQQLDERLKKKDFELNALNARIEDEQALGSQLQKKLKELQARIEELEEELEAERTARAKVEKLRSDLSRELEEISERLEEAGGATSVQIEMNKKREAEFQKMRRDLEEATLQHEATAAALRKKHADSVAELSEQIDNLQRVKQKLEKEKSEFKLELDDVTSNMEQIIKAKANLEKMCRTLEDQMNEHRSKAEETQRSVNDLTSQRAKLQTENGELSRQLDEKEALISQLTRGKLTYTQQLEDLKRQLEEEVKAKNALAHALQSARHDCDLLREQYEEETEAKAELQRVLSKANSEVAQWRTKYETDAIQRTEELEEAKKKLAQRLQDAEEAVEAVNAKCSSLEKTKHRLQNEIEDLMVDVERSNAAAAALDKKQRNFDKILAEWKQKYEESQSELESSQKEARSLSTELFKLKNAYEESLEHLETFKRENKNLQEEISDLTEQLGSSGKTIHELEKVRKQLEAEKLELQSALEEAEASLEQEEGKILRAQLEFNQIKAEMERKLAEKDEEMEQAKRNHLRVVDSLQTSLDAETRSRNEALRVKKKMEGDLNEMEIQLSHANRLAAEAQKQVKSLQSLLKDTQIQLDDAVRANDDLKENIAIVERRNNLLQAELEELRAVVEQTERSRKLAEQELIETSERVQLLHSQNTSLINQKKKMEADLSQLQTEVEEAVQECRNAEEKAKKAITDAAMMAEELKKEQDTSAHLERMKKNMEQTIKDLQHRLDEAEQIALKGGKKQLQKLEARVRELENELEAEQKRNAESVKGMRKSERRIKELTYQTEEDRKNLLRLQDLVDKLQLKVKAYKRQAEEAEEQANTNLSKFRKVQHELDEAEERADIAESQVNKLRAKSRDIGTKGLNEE
Chain of bovine cardiac myosin (P85100 2-199 partner): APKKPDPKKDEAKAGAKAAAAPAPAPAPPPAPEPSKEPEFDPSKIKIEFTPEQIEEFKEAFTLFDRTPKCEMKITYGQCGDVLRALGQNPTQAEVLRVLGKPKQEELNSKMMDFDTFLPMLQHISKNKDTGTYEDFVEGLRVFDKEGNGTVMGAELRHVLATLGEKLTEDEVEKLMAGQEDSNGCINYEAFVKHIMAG
Chain of bovine cardiac myosin (Q3SZE5 2-166 partner): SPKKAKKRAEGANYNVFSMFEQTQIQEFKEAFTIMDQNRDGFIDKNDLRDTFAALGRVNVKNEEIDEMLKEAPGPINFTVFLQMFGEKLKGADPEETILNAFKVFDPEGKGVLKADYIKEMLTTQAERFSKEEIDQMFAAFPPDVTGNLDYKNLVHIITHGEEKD

[1] = target: chicken smooth muscle myosin (Gallus gallus, UniProt P10587); assay type: biochemical; conditions: 2 mM ATP, 3 mM MgCl2, 5 mM KCl, pH 7.4, 2% DMSO, 300 nM myosin, n = 2
Chain of chicken smooth muscle myosin (P10587 2-1979): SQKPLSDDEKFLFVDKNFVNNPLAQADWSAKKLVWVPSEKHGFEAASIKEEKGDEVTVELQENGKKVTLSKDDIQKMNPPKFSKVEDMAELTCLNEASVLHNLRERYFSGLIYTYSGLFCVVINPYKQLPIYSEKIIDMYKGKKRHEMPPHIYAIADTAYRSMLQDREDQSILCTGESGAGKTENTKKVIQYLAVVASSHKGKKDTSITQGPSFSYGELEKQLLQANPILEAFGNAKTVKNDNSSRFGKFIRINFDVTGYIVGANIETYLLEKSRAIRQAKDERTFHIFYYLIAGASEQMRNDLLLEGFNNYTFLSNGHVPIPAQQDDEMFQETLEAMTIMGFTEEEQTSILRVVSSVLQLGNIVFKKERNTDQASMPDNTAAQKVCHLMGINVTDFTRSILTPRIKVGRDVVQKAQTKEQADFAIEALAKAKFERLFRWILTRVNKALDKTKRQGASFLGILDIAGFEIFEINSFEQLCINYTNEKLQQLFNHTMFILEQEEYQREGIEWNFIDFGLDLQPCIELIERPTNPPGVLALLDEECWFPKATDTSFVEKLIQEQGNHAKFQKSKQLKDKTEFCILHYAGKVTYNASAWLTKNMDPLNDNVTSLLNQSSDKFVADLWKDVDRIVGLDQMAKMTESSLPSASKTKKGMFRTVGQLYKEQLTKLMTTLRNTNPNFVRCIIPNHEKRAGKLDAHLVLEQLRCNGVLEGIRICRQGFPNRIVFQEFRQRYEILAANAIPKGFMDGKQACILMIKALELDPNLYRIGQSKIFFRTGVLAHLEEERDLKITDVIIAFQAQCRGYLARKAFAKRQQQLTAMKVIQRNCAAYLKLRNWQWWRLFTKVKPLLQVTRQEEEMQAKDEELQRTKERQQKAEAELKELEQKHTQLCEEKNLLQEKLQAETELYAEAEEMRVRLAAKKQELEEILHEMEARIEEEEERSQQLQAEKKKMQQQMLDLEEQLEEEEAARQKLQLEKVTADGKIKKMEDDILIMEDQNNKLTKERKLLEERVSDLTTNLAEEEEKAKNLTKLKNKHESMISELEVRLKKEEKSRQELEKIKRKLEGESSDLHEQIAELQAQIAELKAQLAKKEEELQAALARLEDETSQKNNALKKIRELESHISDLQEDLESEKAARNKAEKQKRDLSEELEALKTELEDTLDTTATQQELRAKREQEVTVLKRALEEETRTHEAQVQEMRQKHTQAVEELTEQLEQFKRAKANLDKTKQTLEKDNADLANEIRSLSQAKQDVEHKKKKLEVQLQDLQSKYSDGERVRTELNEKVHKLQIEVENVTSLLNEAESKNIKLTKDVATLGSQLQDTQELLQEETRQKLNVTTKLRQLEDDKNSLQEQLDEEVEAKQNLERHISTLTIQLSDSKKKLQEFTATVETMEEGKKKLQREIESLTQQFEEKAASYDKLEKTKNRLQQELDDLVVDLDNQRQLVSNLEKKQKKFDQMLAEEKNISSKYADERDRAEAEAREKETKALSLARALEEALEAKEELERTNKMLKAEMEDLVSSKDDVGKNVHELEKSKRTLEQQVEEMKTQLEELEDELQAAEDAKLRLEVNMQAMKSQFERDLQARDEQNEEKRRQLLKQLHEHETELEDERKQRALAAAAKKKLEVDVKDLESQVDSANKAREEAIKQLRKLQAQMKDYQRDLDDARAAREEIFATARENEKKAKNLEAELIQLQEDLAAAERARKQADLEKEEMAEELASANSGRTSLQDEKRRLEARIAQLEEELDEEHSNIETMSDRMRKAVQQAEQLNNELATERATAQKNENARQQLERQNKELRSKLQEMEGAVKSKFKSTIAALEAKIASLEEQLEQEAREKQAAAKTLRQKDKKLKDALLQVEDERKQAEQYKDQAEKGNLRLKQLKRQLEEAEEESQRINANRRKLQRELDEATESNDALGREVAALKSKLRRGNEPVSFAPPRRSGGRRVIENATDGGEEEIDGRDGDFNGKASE
Chain of chicken smooth muscle myosin (P02607 2-151 partner): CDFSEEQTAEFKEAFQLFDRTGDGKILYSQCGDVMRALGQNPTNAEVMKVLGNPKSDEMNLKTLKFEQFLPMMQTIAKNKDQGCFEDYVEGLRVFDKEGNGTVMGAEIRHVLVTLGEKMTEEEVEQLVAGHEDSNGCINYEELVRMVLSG
Chain of chicken smooth muscle myosin (P02612 2-172 partner): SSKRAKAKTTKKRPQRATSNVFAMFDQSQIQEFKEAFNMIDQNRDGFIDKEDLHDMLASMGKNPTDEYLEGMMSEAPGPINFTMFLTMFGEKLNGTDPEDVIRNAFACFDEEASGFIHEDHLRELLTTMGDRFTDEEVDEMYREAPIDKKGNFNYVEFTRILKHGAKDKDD

PfMyoA = target: T1, PfMyoA (Plasmodium falciparum, UniProt Q8IDR3); assay type: biochemical; conditions: 2 mM ATP, bovine cardiac actin, 3 mM MgCl2, 5 mM KCl, pH 7.4, 2% DMSO; n = 5
T1 sequence (Q8IDR3 1-818): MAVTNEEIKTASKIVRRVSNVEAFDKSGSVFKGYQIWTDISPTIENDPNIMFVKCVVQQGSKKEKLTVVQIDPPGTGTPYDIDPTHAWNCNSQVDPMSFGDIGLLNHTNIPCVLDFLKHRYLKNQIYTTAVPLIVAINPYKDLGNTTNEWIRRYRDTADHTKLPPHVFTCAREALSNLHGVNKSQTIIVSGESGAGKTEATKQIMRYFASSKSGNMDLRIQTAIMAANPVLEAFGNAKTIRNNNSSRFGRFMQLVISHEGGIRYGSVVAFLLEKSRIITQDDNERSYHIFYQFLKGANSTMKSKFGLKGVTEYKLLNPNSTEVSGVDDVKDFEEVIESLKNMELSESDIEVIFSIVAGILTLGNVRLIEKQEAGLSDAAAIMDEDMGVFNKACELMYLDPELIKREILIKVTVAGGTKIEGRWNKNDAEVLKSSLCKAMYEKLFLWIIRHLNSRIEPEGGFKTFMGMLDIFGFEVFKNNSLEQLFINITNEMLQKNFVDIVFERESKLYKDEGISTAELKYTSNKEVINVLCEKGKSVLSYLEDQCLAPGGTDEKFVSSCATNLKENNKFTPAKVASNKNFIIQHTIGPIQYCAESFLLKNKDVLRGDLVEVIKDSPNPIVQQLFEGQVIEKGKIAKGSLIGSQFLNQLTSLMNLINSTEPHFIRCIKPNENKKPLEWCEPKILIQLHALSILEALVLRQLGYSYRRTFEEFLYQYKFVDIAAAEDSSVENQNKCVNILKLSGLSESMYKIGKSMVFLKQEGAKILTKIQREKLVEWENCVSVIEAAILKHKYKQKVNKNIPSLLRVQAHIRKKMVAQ
T1 sequence (Q8IJM4 1-134 partner): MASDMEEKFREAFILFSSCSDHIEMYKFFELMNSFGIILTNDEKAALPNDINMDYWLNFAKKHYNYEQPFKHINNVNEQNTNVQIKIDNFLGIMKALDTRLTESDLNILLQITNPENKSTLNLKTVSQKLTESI
T1 sequence (Q8I4W8 1-204 partner): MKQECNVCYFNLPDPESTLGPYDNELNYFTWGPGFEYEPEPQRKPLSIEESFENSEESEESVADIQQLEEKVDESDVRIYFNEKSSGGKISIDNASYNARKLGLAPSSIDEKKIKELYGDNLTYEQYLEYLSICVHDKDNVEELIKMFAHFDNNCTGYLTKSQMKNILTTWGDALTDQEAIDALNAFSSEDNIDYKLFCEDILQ

Molecule | IC50 (rabbit skeletal myosin) [nM] | IC50 (bovine cardiac myosin) [nM] | IC50 [1] [nM] | IC50 (PfMyoA) [nM]
KNX-115 | 1000 ± 400 | 10000 ± 6400 | > 50000 | –
COc1ccc(C2(NCc3c[nH]nc3-c3cccs3)CC2)cc1 [KNX-002] | – | – | – | 400 ± 100
